Source: the supplement of paper PMC10307832

How the values were obtained:
Experiment in all cases: relative viability (nuclei count vs DMSO), 5 days (fraction); higher = more cells survive
ABC-1 = test system: ABC-1
How it was run: (§1)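 Medians of duplicate plates are given as relative viability. That measure is the nuclei count in treated wells divided by the count in vehicle wells. Counts were taken on 4× images of lung cancer cell lines in 1536-well plates, 5 days after pin-tool dosing the day after seeding with one drug alone or a fixed anchor-drug dose plus five library-drug doses (not always all listed) in √10 steps.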

CAL-12T = test system: CAL-12T
How it was run: as §1

COR-L23 = test system: COR-L23
How it was run: as §1

EKVX = test system: EKVX
How it was run: as §1

H3255 = test system: H3255
How it was run: as §1

HCC-15 = test system: HCC-15
How it was run: as §1

HCC-827 = test system: HCC-827
How it was run: as §1

LK-2 = test system: LK-2
How it was run: as §1

NCI-H1355 = test system: NCI-H1355
How it was run: as §1

NCI-H1437 = test system: NCI-H1437
How it was run: as §1

NCI-H1563 = test system: NCI-H1563
How it was run: as §1

NCI-H1650 = test system: NCI-H1650
How it was run: as §1

NCI-H1651 = test system: NCI-H1651
How it was run: as §1

NCI-H1734 = test system: NCI-H1734
How it was run: as §1

NCI-H2228 = test system: NCI-H2228
How it was run: as §1

NCI-H2405 = test system: NCI-H2405
How it was run: as §1

NCI-H322M = test system: NCI-H322M
How it was run: as §1

NCI-H520 = test system: NCI-H520
How it was run: as §1

NCI-H661 = test system: NCI-H661
How it was run: as §1

PC-14 = test system: PC-14
How it was run: as §1

PC-3 [JPC-3] = test system: PC-3 [JPC-3]
How it was run: as §1

RERF-LC-KJ = test system: RERF-LC-KJ
How it was run: as §1

SK-MES-1 = test system: SK-MES-1
How it was run: as §1

SW 1573 = test system: SW 1573
How it was run: as §1

CC(C)Oc1cc(Nc2nc(N[C@@H](C)c3ccc(F)cn3)ncc2Cl)n[nH]1 [AZ23] + Cc1nc(Nc2ncc(C(=O)Nc3c(C)cccc3Cl)s2)cc(N2CCN(CCO)CC2)n1 [Dasatinib] (partner 0.075 µM)
relative viability (ABC-1; first compound 0.01 µM): 0.583 | relative viability (ABC-1; first compound 0.03162 µM): 0.766 | relative viability (ABC-1; first compound 0.3162 µM): 0.546 | relative viability (CAL-12T; first compound 0.03162 µM): 0.363 | relative viability (CAL-12T; first compound 0.3162 µM): 0.221 | relative viability (COR-L23; first compound 0.01 µM): 0.485 | relative viability (COR-L23; first compound 0.03162 µM): 0.645 | relative viability (COR-L23; first compound 0.3162 µM): 0.504 | relative viability (EKVX; first compound 0.01 µM): 0.503 | relative viability (EKVX; first compound 0.03162 µM): 0.551 | relative viability (EKVX; first compound 0.3162 µM): 0.48 | relative viability (H3255; first compound 0.01 µM): 0.364 | relative viability (H3255; first compound 0.03162 µM): 0.66 | relative viability (H3255; first compound 0.3162 µM): 0.418 | relative viability (HCC-15; first compound 0.01 µM): 0.642 | relative viability (HCC-15; first compound 0.03162 µM): 0.712 | relative viability (HCC-15; first compound 0.3162 µM): 0.575 | relative viability (HCC-827; first compound 0.01 µM): 0.301 | relative viability (HCC-827; first compound 0.03162 µM): 0.288 | relative viability (HCC-827; first compound 0.3162 µM): 0.282 | relative viability (LK-2; first compound 0.01 µM): 0.262 | relative viability (LK-2; first compound 0.03162 µM): 0.286 | relative viability (LK-2; first compound 0.3162 µM): 0.335 | relative viability (NCI-H1355; first compound 0.01 µM): 0.793 | relative viability (NCI-H1355; first compound 0.03162 µM): 0.833 | relative viability (NCI-H1355; first compound 0.3162 µM): 0.633 | relative viability (NCI-H1437; first compound 0.01 µM): 0.354 | relative viability (NCI-H1437; first compound 0.03162 µM): 0.443 | relative viability (NCI-H1437; first compound 0.3162 µM): 0.418 | relative viability (NCI-H1563; first compound 0.01 µM): 0.491 | relative viability (NCI-H1563; first compound 0.03162 µM): 0.533 | relative viability (NCI-H1563; first compound 0.3162 µM): 0.469 | relative viability (NCI-H1650; first compound 0.03162 µM): 0.33 | relative viability (NCI-H1650; first compound 0.3162 µM): 0.299 | relative viability (NCI-H1651; first compound 0.03162 µM): 0.471 | relative viability (NCI-H1651; first compound 0.3162 µM): 0.386 | relative viability (NCI-H1734; first compound 0.01 µM): 0.445 | relative viability (NCI-H1734; first compound 0.03162 µM): 0.454 | relative viability (NCI-H1734; first compound 0.3162 µM): 0.448 | relative viability (NCI-H2228; first compound 0.01 µM): 0.571 | relative viability (NCI-H2228; first compound 0.03162 µM): 0.504 | relative viability (NCI-H2228; first compound 0.3162 µM): 0.445 | relative viability (NCI-H2405; first compound 0.01 µM): 0.225 | relative viability (NCI-H2405; first compound 0.03162 µM): 0.23 | relative viability (NCI-H2405; first compound 0.3162 µM): 0.215 | relative viability (NCI-H322M; first compound 0.03162 µM): 0.255 | relative viability (NCI-H322M; first compound 0.3162 µM): 0.256 | relative viability (NCI-H520; first compound 0.01 µM): 0.194 | relative viability (NCI-H520; first compound 0.03162 µM): 0.24 | relative viability (NCI-H520; first compound 0.3162 µM): 0.162 | relative viability (NCI-H661; first compound 0.01 µM): 0.948 | relative viability (NCI-H661; first compound 0.03162 µM): 1.02 | relative viability (NCI-H661; first compound 0.3162 µM): 0.847 | relative viability (PC-14; first compound 0.03162 µM): 0.273 | relative viability (PC-14; first compound 0.3162 µM): 0.246 | relative viability (PC-3 [JPC-3]; first compound 0.01 µM): 1.13 | relative viability (PC-3 [JPC-3]; first compound 0.03162 µM): 1.08 | relative viability (PC-3 [JPC-3]; first compound 0.3162 µM): 1.01 | relative viability (RERF-LC-KJ; first compound 0.01 µM): 0.91 | relative viability (RERF-LC-KJ; first compound 0.03162 µM): 0.948 | relative viability (RERF-LC-KJ; first compound 0.3162 µM): 0.891 | relative viability (SK-MES-1; first compound 0.03162 µM): 0.275 | relative viability (SK-MES-1; first compound 0.3162 µM): 0.288 | relative viability (SW 1573; first compound 0.01 µM): 0.747 | relative viability (SW 1573; first compound 0.03162 µM): 0.605 | relative viability (SW 1573; first compound 0.3162 µM): 0.52
